Laboratory results as given in ChEMBL document CHEMBL1146631, “Design and synthesis of novel CCR3 antagonists” (Bioorg Med Chem Lett, 2003).

How the values were obtained:
[1] = biological target: T1, C-C chemokine receptor type 3 (Homo sapiens, UniProt P51677); assay: Binding affinity was determined towards C-C chemokine receptor type 3 using [125I]-labeled eotaxin as radioligand
T1 sequence (P51677 whole entry): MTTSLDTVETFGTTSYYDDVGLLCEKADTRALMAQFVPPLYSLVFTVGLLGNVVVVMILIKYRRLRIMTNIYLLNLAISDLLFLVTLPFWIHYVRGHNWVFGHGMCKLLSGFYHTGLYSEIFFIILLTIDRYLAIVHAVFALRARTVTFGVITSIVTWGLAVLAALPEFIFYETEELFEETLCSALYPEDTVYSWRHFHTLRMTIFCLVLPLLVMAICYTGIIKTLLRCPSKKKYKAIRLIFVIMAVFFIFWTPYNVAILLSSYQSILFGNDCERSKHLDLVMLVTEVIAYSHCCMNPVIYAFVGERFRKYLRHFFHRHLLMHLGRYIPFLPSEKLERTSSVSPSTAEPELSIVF

[2] = biological target: T1, C-C chemokine receptor type 3; assay: Compound was tested for its ability to inhibit C-C chemokine receptor type 3 receptor
Rattus norvegicus = assay: Area under curve in rat by po administration at 0-24 hr; assay type: ADME, organism-based; set-up: time < 24 hr, route oral; conditions: in vivo
[3] = Volume of distribution in rat by iv administration; assay type: ADME, organism-based; conditions: in vivo
[4] = Half-life period in rat by iv administration; assay type: ADME, organism-based; conditions: in vivo
[5] = Plasma clearance in rat by iv administration; assay type: ADME, organism-based

SMILES	IC50 [1] [nM]	IC50 [2] [nM]	also measured
Cc1ccc(C(=O)NC(CC2CCN(Cc3ccc([N+](=O)[O-])cc3)CC2)C(C)C)cc1 (stereo not drawn)	8500	–	–
C[C@H](CN1C2CCC1CC(Cc1ccc(Cl)cc1)C2)NC(=O)Nc1cccc(S(C)(=O)=O)c1 (stereo partly drawn)	65	12	–
COc1cc(NC(=O)NC(CC2CCN(Cc3ccc(Cl)c(Cl)c3)CC2)C(C)C)cc(OC)c1OC (stereo not drawn)	500	–	–
COc1cc(NC(=O)N[C@@H](CN2C3CCC2CC(Cc2ccc(Cl)cc2)C3)[C@H](C)O)cc(OC)c1OC (stereo partly drawn)	8.2	2.4	AUC (Rattus norvegicus): 190 ng·h/mL
Cc1ccc(C(=O)NC(CN2C3CCC2CC(Cc2ccc(Cl)c(Cl)c2)C3)C(C)C)cc1 (stereo not drawn)	1800	–	Vd [3]: 30.1 L/kg; half-life [4]: 3.5 h; clearance [5]: 118 mL/min/kg
Cc1ccc(C(=O)NC(CC2CCC(Cc3ccc(Cl)c(Cl)c3)CC2)C(C)C)cc1 (stereo not drawn)	> 200000	–	–
COc1cc(NC(=O)N[C@H](C)CN2C3CCC2CC(Cc2ccc(Cl)cc2)C3)cc(OC)c1OC (stereo partly drawn)	11	4.7	AUC (Rattus norvegicus): 280 ng·h/mL

Continued, in another order:

IC50 [1] [nM]	IC50 [2] [nM]	SMILES	also measured
7800	–	Cc1ccc(C(=O)NC(CC2CCN(Cc3ccc(C)c(C)c3)CC2)C(C)C)cc1 (stereo not drawn)	–
1700	–	Cc1ccc(C(=O)NC(CC2CCN(Cc3ccc(Cl)c(Cl)c3)CC2)C(C)C)cc1 (stereo not drawn)	–
500	–	Cc1ccc(C(=O)NC(CN2CCC(Cc3ccc(Cl)c(Cl)c3)CC2)C(C)C)cc1 (stereo not drawn)	–
12	4.4	C[C@H](O)[C@H](CN1C2CCC1CC(Cc1ccc(Cl)cc1)C2)NC(=O)Nc1cccc(S(C)(=O)=O)c1 (stereo partly drawn)	AUC (Rattus norvegicus): 710 ng·h/mL
> 200000	–	Cc1ccc(C(=O)NC(CC2CCN(Cc3ccccc3)CC2)C(C)C)cc1 (stereo not drawn)	–
5300	–	Cc1ccc(C(=O)NC(CN2CC3CCC2CC3Cc2ccc(Cl)c(Cl)c2)C(C)C)cc1 (stereo not drawn)	–
